Data: patent US20260041640A1 (INCYCLIX BIO, LLC, priority 2023, published 2026)

Assays:
[1] = Non-Sink Dissolution Method (gastric to intestinal transfer); type: physicochemical
Description: The Gastric Media comprised 0.01 N HCl (pH 2.0) at a dose of 1500 μgA/mL. Timepoints tested were 10 min and 25 min following microcentrifugation of 100 μL aliquots diluted 5× in MeOH at 18,500 g. The Intestinal Media comprised 0.5 wt % SIF in Phosphate Buffer (pH 6.5) at a dose of 500 μgA/mL. Timepoints tested were 5 min, 30 min, 45 min, 70 min, 180 min, and 24 hr (post-transfer) following microcentrifugation of 100 μL aliquots diluted 5× in MeOH at 18,500 g. Timepoints tested were 5 min, 45 min, and 24 hr (post-transfer) following ultracentrifugation of 100 μL aliquots diluted 5× in MeOH at 470,000 g. The supernatants were assayed by HPLC.

Ovcar-3 = conditions: BLU-222: based on Ovcar-3 cell cycle data (maximum G1 arrest); read-out: Cellular IC50; cited from earlier work
[2] = system: recurrent advanced/metastatic cancer; assay: First-in-human clinical study: preliminary antitumor activity; type: in vivo
Description: Cohort 1 enrollment of 6 subjects dosed at 100 mg oral QD was completed in October of 2023.

[3] = system: ST4316B ER+, CDK4/6 inhibitor-resistant breast PDX model; assay: ST4316B ER+, CDK4/6 inhibitor-resistant breast PDX model; type: in vivo, athymic nude mice
Description: Athymic nude, outbread homozygous (Crl:NU(NCr)-Foxnl^nu) 6-12-week-old ST4316B [HX] mice were analyzed. Tumor fragments from ST4316B were harvested from host animals and implanted into immune-deficient mice and the study initiated at a mean tumor volume of approximately 150-300 mm^3. […] Data collected from this study included animal weights, observations, and tumor dimensions. This information was used to determine agent tolerability based on weight change and gross physiologic changes; and anticancer activity based on tumor growth inhibition or regression. […]

[4] = Plasma protein binding, human; type: in vitro ADME
Excerpt: (§1) Additionally, the whole blood-to-plasma ratio (KWB/P) in humans is 6.20, which also exceeds the other species tested (Table 7).

[5] = Organic solubility of INX-315 by visual inspection; type: physicochemical; parameters: key to Soluble at 4 wt % / Soluble at 2 wt % / Soluble at 1 wt % / Soluble at 0.5 wt % / Soluble at 0.4 wt % / Soluble at 0.25 wt %: ✓, soluble; X, insoluble
[6] = Plasma protein binding, rat; type: in vitro ADME
Excerpt: as §1

CDK2/cyclin E = CDK2/cyclin E (Homo sapiens, UniProt P24941); conditions: intracellular; read-out: Nanobret IC50 CDK2/cyclin E; cited from earlier work
[7] = Plasma protein binding, mouse; type: in vitro ADME
Excerpt: as §1

[8] = Toxicity and toxicokinetics studies, mouse; type: in vivo, mice
Description: Nominal dose values and sampling times were used for calculations. Any concentration reported as BLQ (LLOQ<1.0 ng/mL) was set equal to zero. Toxicokinetic analyses included Cmax, Tmax, AUC0-24, t1/2, RA Cmax, and RA AUC0-24.
Following this, human dose exposure was simulated using a combined whole blood and plasma compartment PK model using allometry and whole blood parameter estimates for the absorption rate constants and bioavailability per animal species. Absolute dose administration was used for modeling. V1, CL, V2, and Q parameters were extrapolated to human using allometric scaling. CL, Q by exponent equaled 0.818. V1, V2 by exponent equaled 1.03. Human body weight was set to 75 kg. Absorption rate constant (KA) was in reasonable ranges in mouse, rat, and dog, with values of 0.44, 0.53, and 0.18 (1/hr), respectively.

[9] = Cohort 1, 100 mg QD, 6 subjects

NS(=O)(=O)c1ccc(Nc2ncc3cc4n(c3n2)C2(CCCCC2)C(=O)NN4)cc1 [INX-315]
Non-Sink Dissolution, Micro @ 5 min ([1]; microcentrifuged (total drug), 5 min): 13 | Non-Sink Dissolution, Micro @ 60 min ([1]; microcentrifuged (total drug), 60 min): 12 | Non-Sink Dissolution, Micro @ 180 min ([1]; microcentrifuged (total drug), 180 min): 13 | Non-Sink Dissolution, Ultra @ 5 min ([1]; ultracentrifuged (dissolved drug), 5 min): 13 | Non-Sink Dissolution, Ultra @ 60 min ([1]; ultracentrifuged (dissolved drug), 60 min): 12 | Non-Sink Dissolution, Ultra @ 180 min ([1]; ultracentrifuged (dissolved drug), 180 min): 12 | IC50 (Ovcar-3): < 100 nM | partial response (PR) subjects [2, 9]: 1 subjects | progressive disease (PD) subjects [2, 9]: 2 subjects | stable disease (SD) subjects [2, 9]: 3 subjects | response ([2]; Subject 101-001 (ER+/HER2− breast cancer), 100 mg QD): confirmed PR | decrease in TL ([2]; Subject 201-001, end of Cycle 2, 100 mg QD): 10% | tumor growth inhibition versus control ([3]; Day 31, INX-315 100 mg/kg BID + ribociclib 50 mg/kg QD, p=0.0033): statistically significant tumor growth inhibition | tumor growth inhibition percentage (TGI %) ([3]; Day 45, INX-315 100 mg/kg BID + ribociclib 50 mg/kg QD (Group 8), p<0.0002): 65% | fraction unbound [4]: 0.056 | Soluble at 0.25 wt % ([5]; 1:9 DMSO:H2O): X | Soluble at 0.4 wt % ([5]; 1:9 DMSO:H2O): X | Soluble at 0.5 wt % ([5]; 1:9 DMSO:H2O): X | Soluble at 1 wt % ([5]; 1:9 DMSO:H2O): X | Soluble at 2 wt % ([5]; 1:9 DMSO:H2O): X | Soluble at 4 wt % ([5]; 1:9 DMSO:H2O): X | Soluble at 0.25 wt % ([5]; 3:1 DCM:MeOH): X | Soluble at 0.4 wt % ([5]; 3:1 DCM:MeOH): X | Soluble at 0.5 wt % ([5]; 3:1 DCM:MeOH): X | Soluble at 1 wt % ([5]; 3:1 DCM:MeOH): X | Soluble at 2 wt % ([5]; 3:1 DCM:MeOH): X | Soluble at 4 wt % ([5]; 3:1 DCM:MeOH): X | Soluble at 0.25 wt % ([5]; 4:1 ACN:H2O): X | Soluble at 0.4 wt % ([5]; 4:1 ACN:H2O): X | Soluble at 0.5 wt % ([5]; 4:1 ACN:H2O): X | Soluble at 1 wt % ([5]; 4:1 ACN:H2O): X | Soluble at 2 wt % ([5]; 4:1 ACN:H2O): X | Soluble at 4 wt % ([5]; 4:1 ACN:H2O): X | Soluble at 0.25 wt % ([5]; 4:1 THF:H2O): ✓ | Soluble at 0.4 wt % ([5]; 4:1 THF:H2O): ✓ | Soluble at 0.5 wt % ([5]; 4:1 THF:H2O): ✓ | Soluble at 1 wt % ([5]; 4:1 THF:H2O): ✓ | Soluble at 2 wt % ([5]; 4:1 THF:H2O): ✓ | Soluble at 4 wt % ([5]; 4:1 THF:H2O): ✓ | Soluble at 0.25 wt % ([5]; 5:1 DCM:H2O): X | Soluble at 0.4 wt % ([5]; 5:1 DCM:H2O): X | Soluble at 0.5 wt % ([5]; 5:1 DCM:H2O): X | Soluble at 1 wt % ([5]; 5:1 DCM:H2O): X | Soluble at 2 wt % ([5]; 5:1 DCM:H2O): X | Soluble at 4 wt % ([5]; 5:1 DCM:H2O): X | Soluble at 0.25 wt % ([5]; 8:2 Acetone:H2O): ✓ | Soluble at 0.4 wt % ([5]; 8:2 Acetone:H2O): ✓ | Soluble at 0.5 wt % ([5]; 8:2 Acetone:H2O): X | Soluble at 1 wt % ([5]; 8:2 Acetone:H2O): X | Soluble at 2 wt % ([5]; 8:2 Acetone:H2O): X | Soluble at 4 wt % ([5]; 8:2 Acetone:H2O): X | Organic solubility (soluble up to) ([5]; 9:1 ACN:H2O): up to 0.5 wt % | Soluble at 0.25 wt % ([5]; 9:1 ACN:H2O): ✓ | Soluble at 0.4 wt % ([5]; 9:1 ACN:H2O): ✓ | Soluble at 0.5 wt % ([5]; 9:1 ACN:H2O): ✓ | Soluble at 1 wt % ([5]; 9:1 ACN:H2O): X | Soluble at 2 wt % ([5]; 9:1 ACN:H2O): X | Soluble at 4 wt % ([5]; 9:1 ACN:H2O): X | Soluble at 0.25 wt % ([5]; 9:1 Acetone:H2O): ✓ | Soluble at 0.4 wt % ([5]; 9:1 Acetone:H2O): ✓ | Soluble at 0.5 wt % ([5]; 9:1 Acetone:H2O): X | Soluble at 1 wt % ([5]; 9:1 Acetone:H2O): X | Soluble at 2 wt % ([5]; 9:1 Acetone:H2O): X | Soluble at 4 wt % ([5]; 9:1 Acetone:H2O): X | Organic solubility (soluble up to) ([5]; Acetone): up to 0.5 wt % | Soluble at 0.25 wt % ([5]; Acetone): ✓ | Soluble at 0.4 wt % ([5]; Acetone): ✓ | Soluble at 0.5 wt % ([5]; Acetone): ✓ | Soluble at 1 wt % ([5]; Acetone): X | Soluble at 2 wt % ([5]; Acetone): X | Soluble at 4 wt % ([5]; Acetone): X | Soluble at 0.25 wt % ([5]; Methanol): ✓ | Soluble at 0.4 wt % ([5]; Methanol): X | Soluble at 0.5 wt % ([5]; Methanol): X | Soluble at 1 wt % ([5]; Methanol): X | Soluble at 2 wt % ([5]; Methanol): X | Soluble at 4 wt % ([5]; Methanol): X | fraction unbound [6]: 0.018 | IC50 (CDK2/cyclin E): 2 nM | fraction unbound [7]: 0.023 | Absorption rate constant (KA) ([8]; model parameter estimate): 0.44 h⁻¹ | bioavailability ([8]; whole blood, po, read-out: Bioavailability (F1)): 62%
